Legend:
Experiment in all cases: Indoor herbicide activity determination, Seed Treatment; pre-emergence (soil spray)
Assay type in all cases: in vivo
[1] = tested on: Aegilops tauschii; conditions: read-out: Herbicidal activities (inhibition rate) Aegilops tauschii; for inhibition at 120 g/ha: 120 g a.i./ha
Method in brief: (§1)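 Pre-emergence soil spray; sandy soil pH 6.1, OM 1%, 7 cm pots; seeds covered, wetted from below, 24 h incubation under light at constant temperature; spray tower, 300 mm height, 390 mL/min nozzle flow; readout = % fresh-weight inhibition vs control at 21 d.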

[2] = tested on: Alopecurus japonicus
Method in brief: as §1

[3] = tested on: Alopecurus myosuroides
Method in brief: as §1

[4] = tested on: Cyperus iria; conditions: read-out: Herbicidal activities (inhibition rate) Cyperus iria; for inhibition at 120 g/ha: 120 g a.i./ha
Method in brief: as §1

[5] = tested on: Digitaria sanguinalis; conditions: read-out: Herbicidal activities (inhibition rate) Digitaria sanguinalis; for inhibition at 120 g/ha: 120 g a.i./ha
Method in brief: as §1

[6] = tested on: Eclipta prostrata; conditions: read-out: Herbicidal activities (inhibition rate) Eclipta prostrata; for inhibition at 120 g/ha: 120 g a.i./ha
Method in brief: as §1

[7] = tested on: Eleusine indica
Method in brief: as §1

[8] = tested on: Leptochloa chinensis
Method in brief: as §1

[9] = tested on: Lolium multiflorum
Method in brief: as §1

Row | SMILES | inhibition at 120 g/ha [1] | inhibition at 120 g/ha [4] | inhibition at 120 g/ha [5] | inhibition at 120 g/ha [6] | Herbicidal activity (inhibition rate class), Alopecurus japonicus ([2]; Dosage 240 g a.i./ha) | Herbicidal activity (inhibition rate class), Alopecurus myosuroides ([3]; Dosage 240 g a.i./ha) | Herbicidal activity (inhibition rate class), Eleusine indica ([7]; Dosage 240 g a.i./ha) | Herbicidal activity (inhibition rate class), Leptochloa chinensis ([8]; Dosage 240 g a.i./ha) | Herbicidal activity (inhibition rate class), Lolium multiflorum ([9]; Dosage 240 g a.i./ha) | further results
1 | C=C[C@]1(C(=O)N[C@H]2C=C[C@@H](C(=O)OCC)C2)CC(c2cc(F)cc(C(F)(F)F)c2)=NO1 [I-429] | – | – | – | – | – | – | – | – | – | inhibition at 60 g/ha ([1]; 60 g a.i./ha): 60 to 80%; Herbicidal activities, Alopecurus japonicus (inhibition rate class) ([2]; Dosage 120 g a.i./ha): A (A indicates that the inhibition rate was greater than or equal to 80% to 100%); Herbicidal activities, Alopecurus myosuroides (inhibition rate class) ([3]; Dosage 120 g a.i./ha): A (A indicates that the inhibition rate was greater than or equal to 80% to 100%); inhibition at 60 g/ha ([4]; 60 g a.i./ha): 60 to 80%; inhibition at 60 g/ha ([5]; 60 g a.i./ha): 60 to 80%; inhibition at 60 g/ha ([6]; 60 g a.i./ha): 60 to 80%; Herbicidal activities, Eleusine indica (inhibition rate class) ([7]; Dosage 120 g a.i./ha): A (A indicates that the inhibition rate was greater than or equal to 80% to 100%); Herbicidal activities, Leptochloa chinensis (inhibition rate class) ([8]; Dosage 120 g a.i./ha): A (A indicates that the inhibition rate was greater than or equal to 80% to 100%); Herbicidal activities, Lolium multiflorum (inhibition rate class) ([9]; Dosage 120 g a.i./ha): A (A indicates that the inhibition rate was greater than or equal to 80% to 100%)
2 | C=CC1(C(=O)N[C@H]2CO[C@@H](C(=O)OC)C2)CC(c2cc(Cl)cc(OC(F)F)c2)=NO1 (mixture of isomers) [I-373] | 60 to 80% | 60 to 80% | 80 to 100% | 80 to 100% | – | – | – | – | – | Herbicidal activities, Alopecurus japonicus (inhibition rate class) ([2]; Dosage 240 g a.i./ha): A (A indicates that the inhibition rate was greater than or equal to 80% to 100%); Herbicidal activities, Alopecurus myosuroides (inhibition rate class) ([3]; Dosage 240 g a.i./ha): A (A indicates that the inhibition rate was greater than or equal to 80% to 100%); Herbicidal activities, Eleusine indica (inhibition rate class) ([7]; Dosage 240 g a.i./ha): B (B indicates that the inhibition rate was greater than or equal to 60% to less than 80%); Herbicidal activities, Leptochloa chinensis (inhibition rate class) ([8]; Dosage 240 g a.i./ha): A (A indicates that the inhibition rate was greater than or equal to 80% to 100%); Herbicidal activities, Lolium multiflorum (inhibition rate class) ([9]; Dosage 240 g a.i./ha): A (A indicates that the inhibition rate was greater than or equal to 80% to 100%)
3 | COC(=O)[C@@H]1C=C[C@H](NC(=O)C2(C)CC(c3cc(Cl)cc(C(F)(F)F)c3)=NO2)C1 (stereo partly drawn) [I-511] | 80 to 100% | 80 to 100% | 80 to 100% | 80 to 100% | A (A indicates that the inhibition rate was greater than or equal to 80% to 100%) | A (A indicates that the inhibition rate was greater than or equal to 80% to 100%) | A (A indicates that the inhibition rate was greater than or equal to 80% to 100%) | A (A indicates that the inhibition rate was greater than or equal to 80% to 100%) | A (A indicates that the inhibition rate was greater than or equal to 80% to 100%) | –
4 | CC1(C(=O)N[C@H]2C=C[C@@H](C(=O)O)C2)CC(c2cc(Cl)cc(OC(F)(F)F)c2)=NO1 (stereo partly drawn) [I-485] | 80 to 100% | 80 to 100% | 60 to 80% | 80 to 100% | A (A indicates that the inhibition rate was greater than or equal to 80% to 100%) | A (A indicates that the inhibition rate was greater than or equal to 80% to 100%) | A (A indicates that the inhibition rate was greater than or equal to 80% to 100%) | A (A indicates that the inhibition rate was greater than or equal to 80% to 100%) | A (A indicates that the inhibition rate was greater than or equal to 80% to 100%) | –

Source: EP4722201A1, “3-PHENYLISOXAZOLINE-5-CARBOXAMIDE COMPOUND, AND PREPARATION METHOD THEREFOR, HERBICIDAL COMPOSITION THEREOF AND USE THEREOF” (Jiangsu Flag Chemical Industry Co., Ltd, priority 2023, dated 2024)
